The values that follow come from US5703072A, “Bicyclic nonane and decane compounds having dopamine receptor affinity” (Allelix Biopharmaceuticals, priority 1996, dated 1997).

Structures are written as SMILES.

Assay [1] has as its target T1, human D2 receptor (short isoform) (Homo sapiens, UniProt P14416).
T1 construct: 3H-spiperone displacement
In words: D2 receptor binding (displacement of 3H-spiperone) relative to D4: D2/D4 selectivity. The following applies: D2/D4 ratio. Here is the method:
(§1) The potency of the test compound to reduce ^3 H-spiperone binding directly correlated to its binding affinity for the receptor.
GH4 C1 (rat pituitary) cells stably transfected with the human D2 receptor (short isoform) were grown in CO2 independent media in roller bottles (1500 cm^2) for 10 days. 100 μM ZnSO4 was added to the cells (the D2 promoter being zinc inducible). After 16 hours, fresh media was added to allow the cells to recover for 24 hours. The cells were harvested using versine and then centrifuged in a Sorval centrifuge for 10 minutes, at 5000 rpm (GS3 rotor). Pellets were quickly frozen in liquid nitrogen and stored at -80° C. until used in the binding assays. When used in the assay, cells were thawed on ice for 20 minutes. […] The receptor protein concentration was determined using the Pierce BCA assay.
(§2) The tubes were vortexed and incubated at room temperature for 90 minutes. The binding reaction was stopped by filtering using a Brandell Cell Harvester. The samples were filtered under vacuum over glass fibre filters (Whatman GF/B) presoaked for 2 hours in 0.3% polyethylenimine (PEI) in 50 mM Tris buffer (pH 7.4). The filters were then washed 3 times with 5 ml ice cold 50 mM Tris buffer (pH 7.4). Individual filter disks were put in scintillation vials (Biovials, Bechman). Ready Protein Plus liquid scintillant (5 ml, Beckman) was added and the vials counted by liquid scintillation spectrophotometry (Beckman LSC 6500) after equilibrating for three hours at room temperature to determine total binding (BT).
This assay employed the same procedures as the non-specific binding assay for D4 with the exception that 2 μM (final conc.) of (-) sulpiride (Research Chemicals Inc.) was used in place of dopamine.
(§3) The incubation was started by the addition to 12×75 mm polypropylene tubes 500 μl (50 μg protein) membrane homogenate to a solution of 400 μl incubation buffer, 100 μl ([…].) ^3 H-spiperone (90 Ci/mmol, Amersham, diluted in borosilicate glass vial to) and 500 μl of test compound that was prepared from 1 mM stock dissolved in DMSO and stored at -20° C. in polypropylene cryogenic storage vials until dilution in incubation buffer in borosilicate glass vials. The tubes were vortexed and incubated at room temperature for 90 minutes at which time the binding reaction was stopped by filtering. The filters were washed and counted using the same procedure as in the total binding assay described above to give the displacement binding value (BD).
(§4) IC50 was determined from an inhibition response curve, logit-log plot of %B/B0 vs concentration of test compound.
(§5) Ki was calculated by the Cheng and Prustoff transformation: Ki=IC50 /(1+[L]/KD) where [L] is the concentration of ^3 H-spiperone used in the assay and KD is the dissociation constant of ^3 H-spiperone determined independently under the same binding conditions.
A general note: In a radioligand displacement assay an active substance lowers the binding of a labelled ligand.

Assay [2] has as its target T2, human D4 receptor (D4.2 sub-type) (Homo sapiens, UniProt P21917, DEL265-296).
T2 construct: expressed in transfected cells; host or cells: HEK 298 (human embryonic kidney) cells (so in the source); homogenate of stably transfected cells
T2 sequence (P21917 with tags, fused parts or gaps DEL265-296): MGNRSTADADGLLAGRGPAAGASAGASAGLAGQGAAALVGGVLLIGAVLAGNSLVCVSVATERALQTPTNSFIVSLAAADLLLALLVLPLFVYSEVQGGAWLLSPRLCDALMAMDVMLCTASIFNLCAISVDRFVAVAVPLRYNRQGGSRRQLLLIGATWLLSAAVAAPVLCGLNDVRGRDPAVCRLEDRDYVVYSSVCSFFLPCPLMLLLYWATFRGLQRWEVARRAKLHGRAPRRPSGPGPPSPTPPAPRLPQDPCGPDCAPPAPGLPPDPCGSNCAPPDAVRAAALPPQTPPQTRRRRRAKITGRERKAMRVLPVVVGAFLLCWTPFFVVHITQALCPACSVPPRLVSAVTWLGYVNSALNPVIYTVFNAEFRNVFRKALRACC
Description: D4 receptor binding: displacement of 3H-spiperone. The settings on record: D4 affinity; 3H-spiperone displacement. Here is the method:
as §1
The cells were then centrifuged in a Sorval centrifuge for 10 min, 5000 rpm (GS3 rotor) and the pellets quickly frozen in liquid nitrogen and stored at -80° C. until used in binding assay. When used in the assay, cells were thawed on ice for 20 min and then 1 mL of incubation buffer (50 mM Tris, 1 mM EDTA, 4 mM MgCl2, 5 mM KCl, 1.5 mM CaCl2, 120 mM NaCl, pH7.4) was added. […] Concentration of receptor protein was determined using the Pierce BCA assay.
as §2
The tubes were vortexed and incubated at room temperature for 90 minutes at which time the binding reaction was stopped by filtering. The filters were washed and counted using the same procedure as in the total binding assay described above to give the non-specific binding value (NSB).
as §3, §4, §5

The target of assay [3] is T3, human D4 receptors (Homo sapiens, UniProt P21917).
T3 construct: expressed in transfected cells; host or cells: CHO Pro 5 cells, stably expressing
T3 sequence (P21917 1-419): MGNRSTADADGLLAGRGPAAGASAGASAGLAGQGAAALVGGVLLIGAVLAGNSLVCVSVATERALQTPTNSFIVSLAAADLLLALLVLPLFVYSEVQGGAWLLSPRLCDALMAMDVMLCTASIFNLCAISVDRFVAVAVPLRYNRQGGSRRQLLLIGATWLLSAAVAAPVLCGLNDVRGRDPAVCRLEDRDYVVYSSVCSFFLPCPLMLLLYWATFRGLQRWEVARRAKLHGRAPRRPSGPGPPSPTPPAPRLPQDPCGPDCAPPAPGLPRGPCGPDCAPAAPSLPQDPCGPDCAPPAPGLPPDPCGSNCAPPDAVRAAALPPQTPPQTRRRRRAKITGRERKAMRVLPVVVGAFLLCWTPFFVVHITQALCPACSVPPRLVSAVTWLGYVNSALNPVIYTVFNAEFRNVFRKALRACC
Description: Antagonist assay: reversal of dopamine inhibition of forskolin-stimulated adenyl cyclase (cAMP) in CHO Pro 5 cells. The format is cell-based. The settings on record: dopamine and forskolin both 10 μM; for inhibition at 1 µM: test compound 1 μM, read-out: % REVERSAL OF DOPAMINE EFFECT, 1 μM; for inhibition at 10 µM: test compound 10 μM, read-out: % REVERSAL OF DOPAMINE EFFECT, 10 μM. On the procedure: The D4 receptor responds to dopamine and other agonists by reducing adenyl cyclase mediated production of cyclic AMP. Particular test compounds were assayed for their ability to reverse dopamine inhibition of adenyl cyclase by the following procedure. Forskolin was used to elevate the basal adenyl cyclase activity.
CHO Pro 5 cells stably expressing human D4 receptors were plated in 6 well plates in DMEM (Dulbecco's Modified Eagle Medium)/F12(Nutrient Mixture F12 (Ham)) media with 10% FCS (fetal calf serum) and G418 (Geneticen Disulfate), and incubated at 37° C. in a CO2 incubator. The cells were allowed to grow to about 70% confluence before use in the assay.
The culture media of each well was removed by aspiration, and the wells were washed once with serum free media (SFM) (DMEM/F12) media. Then 2 mL of fresh SFM+IBMX media (SFM with 0.5 mM IBMX (3-isobutyl-1-methylxanthine0.1% ascorbic acid and 10 μM pargyline) was added to each well and then incubated at 37° C. for 10 minutes in CO2 incubator. Following incubation, SFM+IBMX media was aspirated and fresh SFM+IBMX media was added to wells separately with one of a) forskolin (10 μM final conc.); b) dopamine and forskolin (both 10 μM final conc.); […]), and dopamine and forskolin (both 10 μM final conc.). Basal adenyl cyclase activity was determined from wells with only SFM+IBMX media added.
The cells were then incubated at 37° C. for 30 minutes in a CO2 incubator. Following incubation the media was aspirated from each well and then washed once with 2 mL of PBS (phosphate buffered saline). […] The cells from each well were then scraped and transferred into individual Eppendorf tubes. The tubes were centrifuged for 5 min at 4° C., and the supernatants were transferred to new Eppendorf tubes. The pellets were discarded and the supernatants dried using a SpeedVac. The extracts were then reconstituted in 600 μL of 0.1M sodium acetate buffer, pH 6.1, and stored at 4° C. until assayed for cAMP concentration. cAMP content measured in fmoles/well for each extract was determined by EIA (enzyme-immunoassay) using Amersham Biotrak cAMP EIA kit (Amersham RPN 225).
Total inhibition (I0) of forskolin-stimulated adenyl cyclase activity by dopamine was determined as the difference in concentration of cAMP in the forskolin-treated cells (Cf) and dopamine-forskolin treated cells (Cd).
Net inhibition (I) of forskolin-stimulated adenyl cyclase activity by dopamine in the presence of an antagonist was determined as the difference in concentration of cAMP in the forskolin-treated cells (Cf) and test compound, dopamine and forskolin treated cells (C).

In assay [4] the target is D4 receptor. The following applies: D4 affinity of currently marketed products; cited from earlier work.
For assay [5], the system named is D4 receptor relative to the D2 receptor. The following applies: currently marketed products; cited from earlier work.

T1 sequence (P14416 with tags, fused parts or gaps DEL242-270): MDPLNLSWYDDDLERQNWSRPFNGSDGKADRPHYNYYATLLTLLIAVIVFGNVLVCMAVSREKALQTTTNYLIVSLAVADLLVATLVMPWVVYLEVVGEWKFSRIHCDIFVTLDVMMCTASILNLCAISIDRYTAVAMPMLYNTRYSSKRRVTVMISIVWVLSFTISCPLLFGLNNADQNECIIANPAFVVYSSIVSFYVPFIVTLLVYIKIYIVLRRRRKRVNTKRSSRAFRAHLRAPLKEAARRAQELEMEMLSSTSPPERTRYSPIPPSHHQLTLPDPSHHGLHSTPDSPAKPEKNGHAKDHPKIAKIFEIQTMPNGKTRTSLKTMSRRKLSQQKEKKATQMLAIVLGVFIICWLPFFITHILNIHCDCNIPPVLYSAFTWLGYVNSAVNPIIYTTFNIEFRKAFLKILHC

Usually Ki stands for a measure of affinity in units of concentration, obtained from inhibition or displacement. As for `Clc1ccc2c(c1)N=C(N1CCN3CCCCC3C1)c1ccccc1O2` (racemic) [8-chloro-11-[(R,S)-1,4-diazabicyclo[4.4.0]decan-4-yl]-dibenzo[b,f]-1,4-oxazepine], the D2/D4 in assay [1] was determined as 6.8. The compound also came in with a Ki in assay [2] of 15.7 nM.

Consider `Clc1ccc2c(c1)N=C(N1CCN3C[C@@H](OCc4ccccc4)C[C@H]3C1)c1ccccc1O2` [8-chloro-11-[(6S,8S)-8-benzyloxy-1,4-diazabicyclo[4.3.0]non-4-yl]-dibenzo[b,f]-1,4-oxazepine], for which the D2/D4 in assay [1] is recorded as 25.6. Besides, affinity in assay [2] was put at a Ki of 24 nM.

With `O[C@H]1C[C@H]2CN(C3=Nc4cc(Cl)ccc4Oc4ccccc43)CCN2C1` [8-chloro-11-[(6S,8S)-8-hydroxy-1,4-diazabicyclo[4.3.0]non-4-yl]-dibenzo[b,f]-1,4-oxazepine], the D2/D4 in assay [1] came to 18.2. In assay [2], this compound came in with a Ki of 28 nM.

`Clc1ccc2c(c1)N=C(N1CCN3CCC[C@@H]3C1)c1ccccc1O2` [8-chloro-11-[(R)-1,4-diazabicyclo[4.3.0]non-4-yl]-dibenzo[b,f]-1,4-oxazepine]: the D2/D4 in assay [1] amounted to 32.2. This compound also came in with a Ki in assay [2] of 18 nM.

With `Clc1ccc2c(c1)N=C(N1CCN3CCCC[C@@H]3C1)c1ccccc1O2` [8-chloro-11-[(R)-1,4-diazabicyclo[4.4.0]decan-4-yl]-dibenzo[b,f]-1,4-oxazepine], the D2/D4 in assay [1] was found to be 4.1. Besides, the Ki in assay [2] was 402 nM.

For the compound `Clc1ccc2c(c1)N=C(N1CCN3CCC[C@H]3C1)c1ccccc1O2` [8-chloro-11-[(S)-1,4-diazabicyclo[4.3.0]non-4-yl]-dibenzo[b,f]-1,4-oxazepine], the D2/D4 in assay [1] is on record as 104.5. Moreover, in assay [3], the inhibition at 1 µM came to 23% and the inhibition at 10 µM came to 48%. Further, the Ki in assay [2] was 1.2 nM.

As to `Clc1ccc2c(c1)N=C(N1CCN3CCCC[C@H]3C1)c1ccccc1O2` [8-chloro-11-[(S)-1,4-diazabicyclo[4.4.0]decan-4-yl]-dibenzo[b,f]-1,4-oxazepine], the D2/D4 in assay [1] is given as 40. Moreover, in assay [3], the inhibition at 1 µM was 52% and the inhibition at 10 µM worked out at 93%. In addition, the affinity in assay [2] corresponds to a Ki of 1 nM.

Regarding `CN1CCN(C2=Nc3cc(Cl)ccc3Oc3ccccc32)CC1` [isoloxapine], in assay [4], the inhibition constant (Ki) is around 20 nM. Further, in assay [5], the “preference for binding the D4 receptor relative to the D2 receptor” value is listed as “about 10 fold”.
